Source: US12247246B2, “Identification of inhibitors of TcpC and TIR NADase activity” (Washington University, priority 2017, dated 2025)

Assays:
[1] = test system: prokaryotic TIR domains (TirS-TIR, TcpC-TIR, TcpA-TIR); experiment: Substrate specificity in NADase assay, purified prokaryotic TIR domains; type: biochemical; conditions: purified TIR proteins, HPLC and LC-MS, 30 minutes
Description: Supernatant (90 μL) containing the extracted metabolites was mixed with 0.5M Potassium Phosphate buffer (10 μL), and metabolites were analyzed by HPLC (Nexera X2) with Kinetex (100×3 mm, 2.6 μm; Phenomenex) column. Internal standards for NAD^+, Nicotinamide (Nam), ADP Ribose (ADPR), and cyclic ADPR were used to generate standard curves for quantification of the respective compounds. The levels for each compound in each experimental sample were normalized to the 0 min time point that was analyzed concurrently.
Neutralization was performed with 3M K2CO3.
Samples were prepared by mixing the reactions with 50% methanol in distilled water. The samples were placed on ice, centrifuged, soluble metabolites in the supernatant were extracted with chloroform, and the aqueous phase was lyophilized and stored at −20° C. until LC-MS analysis. For LC-MS, the metabolite samples were reconstituted with 5 mM ammonium formate, centrifuged 12,000×g for 10 min, and the cleared supernatant was applied to the LC-MS for metabolite identification and quantification. Liquid chromatography was performed by HPLC system (1290; Agilent) with Atlantis T3 (2.1×150 mm, 3 μm; Waters) column. Samples (10 µl) were injected at a flow rate of 0.15 ml/min with 5 mM ammonium formate for mobile phase A and 100% methanol for mobile phase B and metabolites were eluted with gradients of 2-6 min, 0-20% B; 6-8 min, 20-50% B; 8-10 min 50% B; 10-15 min, 50-0% B. The metabolites were detected with Triple Quad mass spectrometer (6460; Agilent) under positive ESI multiple reaction monitoring (MRM). Metabolites were quantified by MassHunter quantitative analysis tool (Agilent) with standard curves. Standard curves for each compound were generated by analyzing NAD^+, cADPR, ADPR, and Nam reconstituted in 5 mM ammonium formate.
In some instances, NADases are capable of cleaving a number of related molecules, such as the NAD+ precursor Nicotinamide Mononucleotide (NMN) in the case of CD38 (Sauve et al., 1998). Further, we wanted to determine whether prokaryotic TIRs could cleave additional substrates, providing additional paths to modifying cell metabolism. To examine the substrate specificity of the prokaryotic TIR domains, we tested their activity using a wide variety of metabolites and analogs.

[2] = biological target: T1, SARM1-TIR (Homo sapiens, UniProt Q6SZW1, DEL570-570/DEL657-657); experiment: Substrate specificity in NADase assay, purified SARM1-TIR; type: biochemical; conditions: purified TIR protein, HPLC and LC-MS, 30 minutes
T1 construct: made in house
T1 sequence (Q6SZW1 with tags, fused parts or gaps DEL570-570/DEL657-657): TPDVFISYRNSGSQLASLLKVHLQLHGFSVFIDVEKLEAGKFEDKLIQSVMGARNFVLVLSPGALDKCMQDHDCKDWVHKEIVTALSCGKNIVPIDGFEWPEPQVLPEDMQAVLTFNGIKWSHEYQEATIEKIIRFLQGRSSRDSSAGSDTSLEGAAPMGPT

[3] = biological target: TcpC TIR (Escherichia coli O6:H1, UniProt A0A0H2V8B5); experiment: biochemical; type: biochemical, uropathogenic Escherichia coli; conditions: for inhibitor of TcpC TIR NADase activity (screen hit, NAD/ADPR ratio >2): Pharmakon library screen, 25 μM compound, 10 μM NAD, 37° C. 60 min, hits retested for dose dependent inhibition
Sequence of TcpC TIR (A0A0H2V8B5 169-303 limits assumed): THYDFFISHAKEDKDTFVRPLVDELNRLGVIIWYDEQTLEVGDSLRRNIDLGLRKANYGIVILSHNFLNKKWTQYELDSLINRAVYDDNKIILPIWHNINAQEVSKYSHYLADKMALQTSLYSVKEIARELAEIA
Description: (§1) NRK1-HEK293T cells were seeded onto 150 cm2 plates at 20×10^6 cells per plate. […] Forty-eight hours after transfection, cells were harvested, pelleted by centrifugation at 1,000 rpm (Sorvall ST 16R centrifuge, Thermo Fisher), and washed once with cold PBS (0.01 M phosphate buffered saline NaCl 0.138 M; KCl 0.0027 M; pH 7.4). The cells were resuspended in PBS with protease inhibitors (Complete protease inhibitor cocktail, Roche product #11873580001) and cell lysates were prepared by sonication (Branson Sonifer 450, output=3, 20 episodes of stroke). […] Protein concentration was determined by the Bicinchoninic (BCA) method and used to normalize lysate concentrations.
(§2) The reaction was incubated at 37° C. for 60 min, and then stopped by addition of 180 μl of 0.55 M perchloric acid (HClO4) and placed on ice. After 10 min on ice, the reaction plates were centrifuged for 10 min at 4,000 rpm (Sorvall ST 16R centrifuge). The supernatant (120 μl) was transferred to a new plate and 10 μl of 3M K2CO3 was added to neutralize the solution. Precipitated salts were removed by centrifugation 10 min at 4,000 rpm (Sorvall ST 16R centrifuge). […] This ratio was compared to the ratio generated in the absence of compound inhibitors.
(§3) Positive hits were individually purchased from Sigma and tested its dose dependent inhibition in conditions described above. SARM1 Sam-Tir lysate and MSSA Tir were also used to test if these compounds could block these Tir NADase activities as well.

[4] = biological target: T2, uropathogenic Escherichia coli TcpC TIR domain (TcpC-TIR) (Escherichia coli, UniProt A0A0H2V8B5); type: biochemical; conditions: primary screen 25 μM, 10 μM NAD, 37° C, 60 min (hit: NAD/ADPR ratio >2), then dose response; FIG. 10
T2 construct: cell lysate
T2 sequence (A0A0H2V8B5 170-307): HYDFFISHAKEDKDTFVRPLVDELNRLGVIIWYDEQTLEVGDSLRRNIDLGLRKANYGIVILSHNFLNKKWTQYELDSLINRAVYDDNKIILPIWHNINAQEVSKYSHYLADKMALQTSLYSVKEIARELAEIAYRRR
Description: as §1, §2
Positive hits were individually purchased from Sigma and tested its dose dependent inhibition in conditions described above. […]

[5] = biological target: TirS (Staphylococcus aureus, UniProt P0DTS9); experiment: TirS NADase inhibition assay (in-vitro translated protein, NAD/ADPR by HPLC); type: biochemical; conditions: FIG. 11B
Sequence of TirS (P0DTS9 141-275 limits assumed): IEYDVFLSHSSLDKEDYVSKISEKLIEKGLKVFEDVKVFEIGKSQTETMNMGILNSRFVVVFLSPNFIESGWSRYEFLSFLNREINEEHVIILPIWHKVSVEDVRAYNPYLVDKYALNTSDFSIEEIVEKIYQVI
Description: as §2

[6] = biological target: T3, SARM1 (Sam-Tir) (Homo sapiens, UniProt Q6SZW1); experiment: SARM1 Sam-Tir lysate NADase inhibition assay; type: biochemical; conditions: data not shown
T3 construct: SARM1 Sam-Tir lysate and MSSA Tir were also used; made in house; host or cells: lysate
T3 sequence (Q6SZW1 410-724 limits assumed): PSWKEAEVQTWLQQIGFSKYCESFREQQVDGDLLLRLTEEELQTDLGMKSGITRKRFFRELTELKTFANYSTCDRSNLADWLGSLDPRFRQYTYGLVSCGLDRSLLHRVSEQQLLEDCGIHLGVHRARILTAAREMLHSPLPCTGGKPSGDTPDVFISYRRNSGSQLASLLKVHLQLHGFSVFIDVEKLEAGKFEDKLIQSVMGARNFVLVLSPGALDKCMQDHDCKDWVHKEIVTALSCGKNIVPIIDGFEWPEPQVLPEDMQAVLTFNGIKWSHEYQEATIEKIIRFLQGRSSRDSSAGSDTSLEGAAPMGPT
Description: NAD (10 μM final concentration) was then added for a final reaction volume of 20 μl. The reaction was incubated at 37° C. for 60 min, and then stopped by addition of 180 μl of 0.55 M perchloric acid (HClO4) and placed on ice. After 10 min on ice, the reaction plates were centrifuged for 10 min at 4,000 rpm (Sorvall ST 16R centrifuge). The supernatant (120 μl) was transferred to a new plate and 10 μl of 3M K2CO3 was added to neutralize the solution. Precipitated salts were removed by centrifugation 10 min at 4,000 rpm (Sorvall ST 16R centrifuge). The supernatant was transferred and analyzed by HPLC (Shimadzu Nexera X2) to quantify the amounts of NAD and ADPR, a product of the cleavage reaction, in each sample. From these values, the NAD/ADPR ratio was calculated for each compound as a measure of NAD cleavage activity. This ratio was compared to the ratio generated in the absence of compound inhibitors.
as §3

[7] = test system: SPN (Streptococcus Pyogenes NAD^+ glycohydrolase); conditions: reported value (Ghosh et al., 2010); cited from earlier work

Compound	cleavage of substrate by prokaryotic TIR domains [1]	cleavage of substrate by SARM1-TIR [2]	other results
Nc1ncnc2c1ncn2[C@@H]1O[C@H](COP(=O)(O)OP(=O)(O)OC[C@H]2O[C@@H]([n+]3cccc(C(=O)O)c3)[C@H](O)[C@@H]2O)[C@@H](O)[C@H]1O [NaAD, Nicotinic Acid Adenine Dinucleotide]	none cleaved	none cleaved	–
NC(=O)c1ccc[n+](C2OC(COP(=O)(O)OP(=O)(O)OCC3OC(n4cnc5c(=O)[nH]cnc54)C(O)C3O)C(O)C2O)c1 (stereo not shown) [NHD, Nicotinamide Hypoxanthine Dinucleotide]	did not cleave	cleaved	–
NC(N)=NC(=O)c1nc(Cl)c(N)nc1N [amiloride, 3,5-diamino-6-chloro-N-(diaminomethylidene)pyrazine-2-carboxamide]	–	–	inhibitor of TcpC TIR NADase activity (screen hit, NAD/ADPR ratio >2) [3]: inhibitors
Cc1cc(N)c2ccccc2[n+]1CCCCCCCCCC[n+]1c(C)cc(N)c2ccccc21 [Dequalinium]	–	–	IC50 [3]: ~300 nM; inhibitor of TcpC TIR NADase activity (screen hit, NAD/ADPR ratio >2) [3]: potent inhibitor; inhibitor of TcpC TIR NADase activity (screen hit, NAD/ADPR ratio >2) ([3]; listed as dequalinium): inhibitors; inhibition of TcpC TIR NADase activity [4]: very potent inhibitor
Nc1ncnc2c1ncn2[C@@H]1O[C@H](COP(=O)(O)OP(=O)(O)OP(=O)(O)O)[C@@H](O)[C@H]1O [ATP, Adenosine triphosphate]	unable to detect substantial cleavage	unable to detect substantial cleavage	–
Nicotinamide Adenine Dinucleotide Phosphate [NADP^+]	cleave	–	–
Nc1c2ccccc2nc2ccccc12 [9-aminoacridine]	–	–	inhibition of TirS NADase activity, compared among acridine compounds [5]: most potent inhibition; inhibition of TcpC TIR NADase activity ([3]; data not shown): Neither of these drugs inhibited; inhibition of SARM1 (Sam-Tir) NADase activity [6]: Neither of these drugs inhibited
NC(=O)c1ccc[n+]([C@@H]2O[C@H](COP(=O)([O-])OP(=O)(O)OC[C@H]3O[C@@H](n4cnc5c(=O)[nH]c(N)nc54)[C@H](O)[C@@H]3O)[C@@H](O)[C@H]2O)c1 [NGD, Nicotinamide Guanine Dinucleotide]	did not cleave	cleaved	–
NC(=O)c1ccc[n+]([C@@H]2O[C@H](COP(=O)([O-])O)[C@@H](O)[C@H]2O)c1 [NMN, Nicotinamide Mononucleotide]	little effect	–	–
NC(=O)c1ccc[n+]([C@@H]2O[C@H](COP(=O)([O-])OP(=O)(O)OC[C@H]3O[C@@H](n4cnc5c(N)ncnc54)[C@H](O)[C@@H]3O)[C@@H](O)[C@H]2O)c1 [NAD+]	–	–	Km [7]: 188 µM
CC(=O)c1ccc[n+]([C@@H]2O[C@H](COP(=O)([O-])OP(=O)(O)OC[C@H]3O[C@@H](n4cnc5c(N)ncnc54)[C@H](O)[C@@H]3O)[C@@H](O)[C@H]2O)c1 [3-apAD, 3-acetylpyridine adenine dinucleotide]	substantially cleaved	substantially cleaved	–
NC(=S)c1ccc[n+]([C@@H]2O[C@H](COP(=O)([O-])OP(=O)(O)OC[C@H]3O[C@@H](n4cnc5c(N)ncnc54)[C@H](O)[C@@H]3O)[C@@H](O)[C@H]2O)c1 [sNAD, thionicotinamide adenine dinucleotide]	substantially cleaved	substantially cleaved	–
Guanine triphosphate [GTP]	unable to detect substantial cleavage	unable to detect substantial cleavage	–
